Test system: Unknown protein yeast genes
Experiment: DNA chip mRNA expression in yeast, unknown protein yeast genes (Table 1)
Type: cell-based, Saccharomyces cerevisiae S288C
Description: Yeast (Saccharomyces cerevisiae S288C (α SUC2mal mel gap2 CUP1)) were incubated at 25° C. on YPD medium (yeast extract 1%, polypepton 2%, glucose 2%). One of toxic chemical substances was added to the cells at logarithmic growth phase, and the cells were further incubated for two hours. Cells were cultured without any chemical substance in the same condition, and were used as control. Concentrations of the chemical substances were defined to inhibit the growth of the yeast but not lead to death.
After completion of the incubation, the culture was centrifuged to collect the cells. To the cells, sodium acetate buffer (50 mM sodium acetate, 10 mM EDTA, 1% SDS) was added, and the mixture was shaken at 65° C. for five minutes, followed by returning to room temperature, and obtaining the supernatant, of which the procedures were repeated two times. To the supernatant, ½ amount of a solution of phenol/chloroform was added, and the mixture was centrifuged to give a supernatant, which was added with an equal amount of chloroform, and the mixture was centrifuged to give a supernatant. To the supernatant, an equal amount of isopropanol containing 0.3 M sodium acetate was added, and the mixture was allowed to stand at room temperature for 30 minutes, after which the mixture was centrifuged to give a sediment of the whole RNAs. Seventy % ethanol was added to the sediment, and the mixture was again centrifuged to give a sediment, which was then dried and dissolved in water. mRNA was isolated from the whole RNAs as followings. In view of the fact that a poly A chain is attached to the 3′ terminus of mRNA, a polynucleotide having a poly T structure which was immobilized on the surface of latex beads was used to trap the mRNA, and then the mRNA was washed and eluted with spine column (Oligotex-dT30<Super>mRNA Purification Kit, Takara). Reverse transcription of the mRNA was conducted with a reverse transcriptase (Super Script II Reverse Transcriptase; catalogue No. 18064-014, GibcoBRL) using fluorescence-labeled nucleotides to give cDNAs that were introduced with Cy3-dUTP or Cy5-dUTP during the reverse transcription.
The labeled cDNAs were dissolved in TE buffer (10mM Tris-HCl/1 mM EDTA, pH8.0), and the solution was dropped on the DNA chip containing the whole genes of yeast (DNA Chip Research Inc. Japan) so that the cDNAs were hybridized on the DNA chip at 65° C. for over 12 hours. The fluoresces intensity of the DNA chip was read with a scanner, and the ratio relative to the fluorescence intensity resulting from the absence of chemical substance was estimated as the following, which is shown in Tables 1 to 9: […]

Substance: manganese ethylenebis(dithiocarbamate) [(8)]
- The level of expressed mRNA in the presence of chemical substance/The level of expressed mRNA in the absence of chemical substance (yeast gene YAL053W, incubated two hours with chemical substance): 0.8
- The level of expressed mRNA in the presence of chemical substance/The level of expressed mRNA in the absence of chemical substance (yeast gene YBL048W): 1.2
- The level of expressed mRNA in the presence of chemical substance/The level of expressed mRNA in the absence of chemical substance (yeast gene YBL107C): 1.9
- The level of expressed mRNA in the presence of chemical substance/The level of expressed mRNA in the absence of chemical substance (yeast gene YDL072C, incubated two hours with chemical substance): 0.8
- The level of expressed mRNA in the presence of chemical substance/The level of expressed mRNA in the absence of chemical substance (yeast gene YDL204W, incubated two hours with chemical substance): 1.1
- The level of expressed mRNA in the presence of chemical substance/The level of expressed mRNA in the absence of chemical substance (yeast gene YDL222C, incubated two hours with chemical substance): 0.7
- The level of expressed mRNA in the presence of chemical substance/The level of expressed mRNA in the absence of chemical substance (yeast gene YDR330W, incubated two hours with chemical substance): 1.1
- The level of expressed mRNA in the presence of chemical substance/The level of expressed mRNA in the absence of chemical substance (yeast gene YDR411C, incubated two hours with chemical substance): 0.9
- The level of expressed mRNA in the presence of chemical substance/The level of expressed mRNA in the absence of chemical substance (yeast gene YDR511W, incubated two hours with chemical substance): 1.7
- The level of expressed mRNA in the presence of chemical substance/The level of expressed mRNA in the absence of chemical substance (yeast gene YDR545W, incubated two hours with chemical substance): 0.6
- The level of expressed mRNA in the presence of chemical substance/The level of expressed mRNA in the absence of chemical substance (yeast gene YEL001C, incubated two hours with chemical substance): 1.2
- The level of expressed mRNA in the presence of chemical substance/The level of expressed mRNA in the absence of chemical substance (yeast gene YER004W, incubated two hours with chemical substance): 1.1
- The level of expressed mRNA in the presence of chemical substance/The level of expressed mRNA in the absence of chemical substance (yeast gene YER035W, incubated two hours with chemical substance): 1.2
- The level of expressed mRNA in the presence of chemical substance/The level of expressed mRNA in the absence of chemical substance (yeast gene YER079W, incubated two hours with chemical substance): 1.4
- The level of expressed mRNA in the presence of chemical substance/The level of expressed mRNA in the absence of chemical substance (yeast gene YER106W, incubated two hours with chemical substance): 1.2
- The level of expressed mRNA in the presence of chemical substance/The level of expressed mRNA in the absence of chemical substance (yeast gene YER158C, incubated two hours with chemical substance): 0.9
- The level of expressed mRNA in the presence of chemical substance/The level of expressed mRNA in the absence of chemical substance (yeast gene YER163C, incubated two hours with chemical substance): 1.4
- The level of expressed mRNA in the presence of chemical substance/The level of expressed mRNA in the absence of chemical substance (yeast gene YER175C, incubated two hours with chemical substance): 1.1
- The level of expressed mRNA in the presence of chemical substance/The level of expressed mRNA in the absence of chemical substance (yeast gene YFL006W, incubated two hours with chemical substance): 1.0
- The level of expressed mRNA in the presence of chemical substance/The level of expressed mRNA in the absence of chemical substance (yeast gene YFL010C, incubated two hours with chemical substance): 1.0
- The level of expressed mRNA in the presence of chemical substance/The level of expressed mRNA in the absence of chemical substance (yeast gene YFL024C): 0.9
- The level of expressed mRNA in the presence of chemical substance/The level of expressed mRNA in the absence of chemical substance (yeast gene YFL032W, incubated two hours with chemical substance): 0.4
- The level of expressed mRNA in the presence of chemical substance/The level of expressed mRNA in the absence of chemical substance (yeast gene YGL037C, incubated two hours with chemical substance): 1.2
- The level of expressed mRNA in the presence of chemical substance/The level of expressed mRNA in the absence of chemical substance (yeast gene YGL047W, incubated two hours with chemical substance): 1.1
- The level of expressed mRNA in the presence of chemical substance/The level of expressed mRNA in the absence of chemical substance (yeast gene YGL053W, incubated two hours with chemical substance): 1.2
- The level of expressed mRNA in the presence of chemical substance/The level of expressed mRNA in the absence of chemical substance (yeast gene YGL121C): 3.0
- The level of expressed mRNA in the presence of chemical substance/The level of expressed mRNA in the absence of chemical substance (yeast gene YGL199C, incubated two hours with chemical substance): 0.7
- The level of expressed mRNA in the presence of chemical substance/The level of expressed mRNA in the absence of chemical substance (yeast gene YGR101W, incubated two hours with chemical substance): 0.8
- The level of expressed mRNA in the presence of chemical substance/The level of expressed mRNA in the absence of chemical substance (yeast gene YGR110W): 1.5
- The level of expressed mRNA in the presence of chemical substance/The level of expressed mRNA in the absence of chemical substance (yeast gene YGR130C, incubated two hours with chemical substance): 0.9
- The level of expressed mRNA in the presence of chemical substance/The level of expressed mRNA in the absence of chemical substance (yeast gene YGR154C, incubated two hours with chemical substance): 1.7
- The level of expressed mRNA in the presence of chemical substance/The level of expressed mRNA in the absence of chemical substance (yeast gene YGR221C, incubated two hours with chemical substance): 1.1
- The level of expressed mRNA in the presence of chemical substance/The level of expressed mRNA in the absence of chemical substance (yeast gene YHR138C, incubated two hours with chemical substance): 1.4
- The level of expressed mRNA in the presence of chemical substance/The level of expressed mRNA in the absence of chemical substance (yeast gene YHR199C, incubated two hours with chemical substance): 1.0
- The level of expressed mRNA in the presence of chemical substance/The level of expressed mRNA in the absence of chemical substance (yeast gene YIL023C, incubated two hours with chemical substance): 0.7
- The level of expressed mRNA in the presence of chemical substance/The level of expressed mRNA in the absence of chemical substance (yeast gene YIL041W, incubated two hours with chemical substance): 0.9
- The level of expressed mRNA in the presence of chemical substance/The level of expressed mRNA in the absence of chemical substance (yeast gene YIL087C, incubated two hours with chemical substance): 1.1
- The level of expressed mRNA in the presence of chemical substance/The level of expressed mRNA in the absence of chemical substance (yeast gene YJL057C, incubated two hours with chemical substance): 1.5
- The level of expressed mRNA in the presence of chemical substance/The level of expressed mRNA in the absence of chemical substance (yeast gene YJL066C, incubated two hours with chemical substance): 0.8
- The level of expressed mRNA in the presence of chemical substance/The level of expressed mRNA in the absence of chemical substance (yeast gene YJL082W, incubated two hours with chemical substance): 0.9
- The level of expressed mRNA in the presence of chemical substance/The level of expressed mRNA in the absence of chemical substance (yeast gene YJL151C, incubated two hours with chemical substance): 0.8
- The level of expressed mRNA in the presence of chemical substance/The level of expressed mRNA in the absence of chemical substance (yeast gene YJL152W, incubated two hours with chemical substance): 0.7
- The level of expressed mRNA in the presence of chemical substance/The level of expressed mRNA in the absence of chemical substance (yeast gene YJL161W, incubated two hours with chemical substance): 1.4
- The level of expressed mRNA in the presence of chemical substance/The level of expressed mRNA in the absence of chemical substance (yeast gene YJL171C, incubated two hours with chemical substance): 0.9
- The level of expressed mRNA in the presence of chemical substance/The level of expressed mRNA in the absence of chemical substance (yeast gene YJR008W, incubated two hours with chemical substance): 1.1
- The level of expressed mRNA in the presence of chemical substance/The level of expressed mRNA in the absence of chemical substance (yeast gene YJR054W, incubated two hours with chemical substance): 1.6
- The level of expressed mRNA in the presence of chemical substance/The level of expressed mRNA in the absence of chemical substance (yeast gene YKL071W): 24.7
- The level of expressed mRNA in the presence of chemical substance/The level of expressed mRNA in the absence of chemical substance (yeast gene YKL086W, incubated two hours with chemical substance): 1.1
- The level of expressed mRNA in the presence of chemical substance/The level of expressed mRNA in the absence of chemical substance (yeast gene YKL151C, incubated two hours with chemical substance): 1.0
- The level of expressed mRNA in the presence of chemical substance/The level of expressed mRNA in the absence of chemical substance (yeast gene YKL153W, incubated two hours with chemical substance): 0.7

Source: US8192962B2, “Processes for detecting toxic substances” (Daikin Industries, Ltd., priority 2001, dated 2012)
